Results: ChEMBL document CHEMBL1201862, “PubChem BioAssay data set” (2004)
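48-hour exposure; five concentrations; linearly interpolated endpoints. GI50: concentration for 50% inhibition of growth.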 Activity calls are given as the source filed them. Rule as the data show it: active = GI50 up to about 1.1 µM and inactive = higher.

What was measured:
Test in all cases: NCI anticancer screen, dose series, 48 h
[1] = system: HCT-15
[2] = system: MOLT-4
[3] = system: CAKI-1
[4] = system: HCT-116
[5] = system: 786-0
[6] = system: LOX IMVI
[7] = system: NCI-H460
[8] = system: U-251
[9] = system: CCRF-CEM
[10] = system: T47D
[11] = system: UACC-62
[12] = system: Hs-578T
[13] = system: HOP-92
[14] = system: SR
[15] = system: OVCAR-5
[16] = system: SF-268
[17] = system: NCI-H226
[18] = system: SK-MEL-28
[19] = system: SN12C

Compound | GI50 [1] [µM] | GI50 [2] | GI50 [3] | GI50 [4] | GI50 [5] | GI50 [6] | GI50 [7] | GI50 [8] | GI50 [9] | GI50 [10] | GI50 [11] | GI50 [12] | GI50 [13] | GI50 [14] | GI50 [15] | GI50 [16] | GI50 [17] | GI50 [18] | GI50 [19]
COC(=O)NC(Nc1ccccn1)(C(F)(F)F)C(F)(F)F | > 100 | > 100 µM (inactive) | > 100 µM (inactive) | > 100 µM (inactive) | > 100 µM (inactive) | > 100 µM (inactive) | > 100 µM (inactive) | > 100 µM (inactive) | > 100 µM (inactive) | > 100 µM (inactive) | > 100 µM (inactive) | > 100 µM (inactive) | > 100 µM (inactive) | > 100 µM (inactive) | > 100 µM (inactive) | > 100 µM (inactive) | > 100 µM (inactive) | > 100 µM (inactive) | –
O=C1Nc2ccc(S(=O)(=O)O)cc2/C1=C1/Nc2ccc(Br)cc2C1=O | > 100 | > 100 µM (inactive) | > 100 µM (inactive) | > 100 µM (inactive) | > 100 µM (inactive) | > 100 µM (inactive) | > 100 µM (inactive) | > 100 µM (inactive) | > 100 µM (inactive) | > 100 µM (inactive) | > 100 µM (inactive) | > 100 µM (inactive) | > 100 µM (inactive) | > 100 µM (inactive) | > 100 µM (inactive) | > 100 µM (inactive) | > 100 µM (inactive) | > 100 µM (inactive) | > 100 µM (inactive)
CCCCCCCCCCCCCCCCCCNc1ccn(C2OC(COP(=O)(O)OCC(COP(=O)(O)OCC3OC(n4cc(C)c(=O)[nH]c4=O)CC3N=[N+]=[N-])OCCCCCCCCCCCCCCCCCC)C(O)C2O)c(=O)n1 (stereo unspecified) | 34 | 41.5 µM (inactive) | > 100 µM (inactive) | 56.8 µM (inactive) | 54.1 µM (inactive) | 21.2 µM (inactive) | 54.3 µM (inactive) | 12.8 µM (inactive) | > 100 µM (inactive) | 46.7 µM (inactive) | 49.5 µM (inactive) | > 100 µM (inactive) | 20.3 µM (inactive) | > 100 µM (inactive) | 76.9 µM (inactive) | 50.6 µM (inactive) | > 100 µM (inactive) | > 100 µM (inactive) | > 100 µM (inactive)
Cc1cc2ccc(OC(=O)c3ccc(NC(=N)N)cc3)cc2oc1=O | > 100 | 22.9 µM (inactive) | 43.5 µM (inactive) | 24.1 µM (inactive) | 25.1 µM (inactive) | 30.8 µM (inactive) | 31.4 µM (inactive) | 21.6 µM (inactive) | 30.5 µM (inactive) | 26.8 µM (inactive) | 26.9 µM (inactive) | 25.9 µM (inactive) | 41.6 µM (inactive) | 22.5 µM (inactive) | 34.3 µM (inactive) | 25.2 µM (inactive) | 26.4 µM (inactive) | 24 µM (inactive) | 23.6 µM (inactive)
CC(=O)OC1CCC2(C)C(=CCC3C4CCC5(OC6CC(C)CN(C(C)=O)C6C5C)C(C)=C4C(=O)C32)C1 (stereo unspecified) | 15.7 | 5.53 µM (inactive) | 19.6 µM (inactive) | 18.9 µM (inactive) | 28.1 µM (inactive) | 12 µM (inactive) | 15.7 µM (inactive) | 16.2 µM (inactive) | > 100 µM (inactive) | 7.76 µM (inactive) | 5.35 µM (inactive) | 16 µM (inactive) | 15 µM (inactive) | 16 µM (inactive) | 19.2 µM (inactive) | 16 µM (inactive) | 22.2 µM (inactive) | > 100 µM (inactive) | 21.6 µM (inactive)
COC(=O)/C=C/C(=O)Nc1cc(Cl)c(Cl)cc1CC(=O)N(C)[C@H]1CCCC[C@@H]1N1CCCC1 | 11.4 | 3.18 µM (inactive) | 5.37 µM (inactive) | 6.5 µM (inactive) | 3.83 µM (inactive) | 5.3 µM (inactive) | 17.3 µM (inactive) | 14.8 µM (inactive) | 2.79 µM (inactive) | 8.73 µM (inactive) | 13.9 µM (inactive) | 18.1 µM (inactive) | 5.74 µM (inactive) | 1.95 µM (inactive) | 15.8 µM (inactive) | 18.7 µM (inactive) | 15.3 µM (inactive) | 16.1 µM (inactive) | 10.2 µM (inactive)
Cc1ccc(S(=O)(=O)Nc2nnc(S(N)(=O)=O)s2)cc1 | > 100 | > 100 µM (inactive) | > 100 µM (inactive) | > 100 µM (inactive) | > 100 µM (inactive) | > 100 µM (inactive) | > 100 µM (inactive) | > 100 µM (inactive) | – | > 100 µM (inactive) | > 100 µM (inactive) | > 100 µM (inactive) | > 100 µM (inactive) | > 100 µM (inactive) | > 100 µM (inactive) | > 100 µM (inactive) | > 100 µM (inactive) | > 100 µM (inactive) | > 100 µM (inactive)
